Assays:
human APEH = molecular target: T1, human APEH (Homo sapiens, UniProt P13798); assay: Competitive ABPP, soluble fractions of human cancer cells; type: biochemical
T1 construct: endogenous in cells; host or cells: SKOV3, C8161, MDA-MB-231 (soluble fractions)
Description: (§1) The soluble fractions of human ovarian (SKOV3), melanoma (C8161), and breast (MDA-MB-231) cancer cells, as well as rat neuroblastoma (B103) cells were treated with 30 nM AA74-1 or DMSO for 30 minutes at 37° C., after which the samples were analyzed by competitive ABPP. Inhibited APEH is highlighted with boxes. Note that other SHs detected in human and mouse proteomes were not inhibited by AA74-1.

rat APEH = molecular target: T2, rat APEH (Rattus norvegicus, UniProt P13676); assay: Competitive ABPP, soluble fraction of rat neuroblastoma (B103) cells; type: biochemical
T2 construct: endogenous in cells; host or cells: B103 rat neuroblastoma cells (soluble fraction)
T2 sequence (P13676 whole entry): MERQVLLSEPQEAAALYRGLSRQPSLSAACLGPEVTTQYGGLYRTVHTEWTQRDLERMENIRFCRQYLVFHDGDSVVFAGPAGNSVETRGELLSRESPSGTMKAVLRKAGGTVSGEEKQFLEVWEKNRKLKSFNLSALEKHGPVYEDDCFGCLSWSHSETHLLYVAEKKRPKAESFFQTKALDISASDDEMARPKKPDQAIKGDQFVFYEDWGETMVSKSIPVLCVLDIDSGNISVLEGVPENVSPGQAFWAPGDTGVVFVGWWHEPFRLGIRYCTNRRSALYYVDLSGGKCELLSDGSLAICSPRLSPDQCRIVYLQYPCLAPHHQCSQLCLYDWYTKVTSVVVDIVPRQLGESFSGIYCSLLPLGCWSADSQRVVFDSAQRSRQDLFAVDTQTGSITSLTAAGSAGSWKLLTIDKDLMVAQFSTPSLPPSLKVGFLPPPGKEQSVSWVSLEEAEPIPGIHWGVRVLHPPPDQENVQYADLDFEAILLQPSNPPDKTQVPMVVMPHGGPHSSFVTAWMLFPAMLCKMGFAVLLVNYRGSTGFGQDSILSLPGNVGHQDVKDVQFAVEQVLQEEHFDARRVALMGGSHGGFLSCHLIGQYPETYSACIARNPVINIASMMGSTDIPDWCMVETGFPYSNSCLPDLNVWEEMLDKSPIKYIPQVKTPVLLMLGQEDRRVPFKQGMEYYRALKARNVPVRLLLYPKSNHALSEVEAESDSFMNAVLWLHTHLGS
Description: as §1

APEH = molecular target: T3, APEH (Mus musculus, UniProt Q8R146); assay: In situ inhibition in cultured mouse T-cells, gel-based competitive ABPP; type: cell-based; details: 4 h at 37° C.; read-out: potency of APEH inactivation in cultured T-cells
T3 sequence (Q8R146 1-732): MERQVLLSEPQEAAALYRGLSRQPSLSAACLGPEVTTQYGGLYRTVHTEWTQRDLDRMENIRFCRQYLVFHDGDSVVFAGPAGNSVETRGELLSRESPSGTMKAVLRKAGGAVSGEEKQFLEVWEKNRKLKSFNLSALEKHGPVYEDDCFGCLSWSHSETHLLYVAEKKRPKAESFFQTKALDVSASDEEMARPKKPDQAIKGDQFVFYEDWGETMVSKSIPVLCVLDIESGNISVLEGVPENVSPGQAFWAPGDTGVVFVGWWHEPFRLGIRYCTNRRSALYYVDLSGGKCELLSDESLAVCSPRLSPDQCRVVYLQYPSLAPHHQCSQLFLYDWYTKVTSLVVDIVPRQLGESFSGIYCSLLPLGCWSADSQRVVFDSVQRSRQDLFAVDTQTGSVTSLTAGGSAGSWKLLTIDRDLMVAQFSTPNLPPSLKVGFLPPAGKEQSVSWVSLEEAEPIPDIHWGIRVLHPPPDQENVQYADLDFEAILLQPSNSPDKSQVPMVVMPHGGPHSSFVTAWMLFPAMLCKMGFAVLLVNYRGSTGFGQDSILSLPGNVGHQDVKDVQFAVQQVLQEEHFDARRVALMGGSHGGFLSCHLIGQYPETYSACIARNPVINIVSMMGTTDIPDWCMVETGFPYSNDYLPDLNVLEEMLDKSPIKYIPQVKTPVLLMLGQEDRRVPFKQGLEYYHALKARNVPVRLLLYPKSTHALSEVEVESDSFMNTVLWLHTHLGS

[1] = molecular target: T4, APEH recombinantly expressed in HEK-293 cells (Mus musculus, UniProt Q8R146); assay: APEH exopeptidase assay with synthetic N-acetylated hexapeptides (LC-MS); type: biochemical; details: 3 nM, 30 min pre-treatment
T4 construct: full-length cDNAs encoding mouse serine hydrolases were either transfected directly; host or cells: HEK-293
Description: Enzyme assays were performed with LC-MS by monitoring the release of the N-terminal N-acetyl amino acid. APEH was transiently overexpressed in HEK-293 cells and whole cell lysates were treated with DMSO or 3 nM AA74-1 for 30 minutes and adjusted to a final protein concentration of about 0.3 mg/mL with PBS buffer. For each reaction, about 200 μM of hexapeptide were incubated with lysates for 10 h at 37° C. before quenching with 0.8 mL MeOH. Samples were centrifuged for 10 minutes at 10,000×g at 4° C. and the supernatant was dried down under vacuum. For LC-MS analysis samples were injected into an Agilent 1100 LC-MSD SL instrument applying the following gradient: Buffer A (MeCN) to Buffer B (95:5 H2O/MeCN+50 mM NH4OAc+0.2% NH4OH). Data represent the average±s.d. for three experiments.
Enzyme assays were performed with LC-MS by monitoring the formation of free N-acetyl amino acid. Mouse APEH was recombinantly expressed in HEK-293 cells and whole cell lysates of overexpressed APEH (or mock) were pre-treated with DMSO or 3 nM AA74-1 for 30 minutes and adjusted to a final protein concentration of 0.3 mg/mL with PBS buffer. For each reaction 200 μM of hexapeptide substrate were incubated with lysates in 200 μL total reaction volume. Reactions were incubated for 10 h at 37° C. before quenching with 0.8 mL MeOH. […]

DAGLB = molecular target: T5, DAGLB (Mus musculus, UniProt Q91WC9); assay: ABPP-SILAC in Neuro2A cells; details: about 4 hours; 25 nM KT172, 50 nM KT109
T5 sequence (Q91WC9 1-669): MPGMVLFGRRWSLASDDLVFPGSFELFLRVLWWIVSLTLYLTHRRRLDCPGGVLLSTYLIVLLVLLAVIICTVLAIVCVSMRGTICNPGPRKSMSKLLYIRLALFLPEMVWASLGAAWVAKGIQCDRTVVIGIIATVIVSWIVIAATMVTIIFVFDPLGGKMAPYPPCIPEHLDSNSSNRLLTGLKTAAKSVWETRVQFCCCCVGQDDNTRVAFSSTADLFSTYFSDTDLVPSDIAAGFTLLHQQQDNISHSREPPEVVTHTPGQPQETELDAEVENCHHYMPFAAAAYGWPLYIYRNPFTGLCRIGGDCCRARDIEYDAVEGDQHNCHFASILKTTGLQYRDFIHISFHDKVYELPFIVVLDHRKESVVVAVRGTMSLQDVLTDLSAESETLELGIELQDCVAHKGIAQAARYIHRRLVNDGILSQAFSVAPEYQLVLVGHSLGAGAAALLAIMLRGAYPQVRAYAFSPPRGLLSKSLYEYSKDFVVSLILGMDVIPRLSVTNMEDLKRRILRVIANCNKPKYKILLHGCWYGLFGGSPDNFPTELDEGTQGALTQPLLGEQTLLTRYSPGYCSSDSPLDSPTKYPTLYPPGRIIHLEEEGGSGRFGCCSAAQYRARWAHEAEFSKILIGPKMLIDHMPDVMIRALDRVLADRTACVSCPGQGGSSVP

T1 sequence (P13798 whole entry): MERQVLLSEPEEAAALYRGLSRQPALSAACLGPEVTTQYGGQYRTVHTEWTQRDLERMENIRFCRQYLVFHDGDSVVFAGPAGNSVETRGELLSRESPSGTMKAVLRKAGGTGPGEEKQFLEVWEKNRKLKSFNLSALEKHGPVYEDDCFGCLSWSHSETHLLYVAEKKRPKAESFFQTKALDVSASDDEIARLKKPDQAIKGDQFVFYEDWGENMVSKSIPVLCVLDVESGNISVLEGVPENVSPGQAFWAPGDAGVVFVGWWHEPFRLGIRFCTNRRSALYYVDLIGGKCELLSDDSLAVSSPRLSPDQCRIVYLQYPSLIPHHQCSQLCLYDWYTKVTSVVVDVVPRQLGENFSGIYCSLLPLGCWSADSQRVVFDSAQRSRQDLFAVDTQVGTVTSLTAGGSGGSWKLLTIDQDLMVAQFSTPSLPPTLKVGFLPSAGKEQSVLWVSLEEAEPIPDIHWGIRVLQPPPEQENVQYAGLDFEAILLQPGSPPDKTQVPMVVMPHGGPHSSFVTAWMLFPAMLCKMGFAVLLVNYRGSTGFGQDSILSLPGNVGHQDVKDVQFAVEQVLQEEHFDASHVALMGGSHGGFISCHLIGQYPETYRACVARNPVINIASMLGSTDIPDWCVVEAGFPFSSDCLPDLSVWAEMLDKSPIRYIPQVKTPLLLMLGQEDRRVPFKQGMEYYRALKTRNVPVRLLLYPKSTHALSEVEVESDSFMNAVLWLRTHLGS

Row | SMILES | IC50 (human APEH) | IC50 (rat APEH) | IC50 (APEH) | cleavage of N-terminally acetylated residue by APEH-transfected cells [1] | DAGLB activity blocked (DAGLB)
1 | CC(C)CC(O)(CC(C)C)c1cnn(C(=O)N2CCCC2)n1 [AA74-1] | 11 nM | 7 nM | 0.14 to 0.17 nM | blocked | –
2 | O=C(N1CCCCC1Cc1ccccc1)n1cc(-c2ccc(-c3ccccc3)cc2)nn1 (centres unmarked) [KT109] | – | – | – | – | approximately 90%

Reference: US9108930B2, “N1- and N2-carbamoyl-1,2,3-triazole serine hydrolase inhibitors and methods” (The Scripps Research Institute, priority 2011, dated 2015)
